This is an account of results in patent US20200078363A1, “POST-SURGICAL PAIN TREATMENT” (Heron Therapeutics, Inc., priority 2018, published 2020).

This test relates to post-surgical incisional (post-operative or POP) pain. In words: Post-operative (POP) pain porcine model, von Frey test. It is filed as in vivo. The following applies: Group 1: IV aprepitant 6 mg/kg once prior to surgery and daily for 5 days after surgery, no other medication; 4 pigs. From the text: Example 1 describes three studies conducted to evaluate the capacity to reduce post-surgical incisional (post-operative or POP) pain in a porcine model system. Using a post-operative (POP) pain porcine model system, where a 7 cm long skin and fascia incision was made in the left flank under general anesthesia to pigs, NK-1 receptor antagonist alone or in combination with pain medication (i.e., bupivacaine and meloxicam) were applied to the wound. The skin incision was then closed using sterile sutures. Various methods were evaluated for their capacity to reduce post-surgical incisional (post-operative or POP) pain in a porcine model system. […] All studies described below evaluated 4 pigs per group. Post-operative pain was assessed using the von Frey methodology. […] By alternating the filament thickness, the gram force required to achieve withdrawal reaction was determined and recorded. […] Several studies evaluated emulsion compositions containing aprepitant (diluted 1:7) with saline, administered by intravenous infusion dosed at 6 mg/kg as a slow bolus via an IV catheter in the ear. […] Analgesia was evaluated by response in the von Frey test, as described above. […] By following similar procedures described in Example 1, the analgesic effect of a lower dose of aprepitant (i.e., lower than 6.0 mg/kg) was evaluated. […]

The structures appear in SMILES notation.

For `C[C@@H](O[C@H]1OCCN(Cc2n[nH]c(=O)[nH]2)[C@H]1c1ccc(F)cc1)c1cc(C(F)(F)F)cc(C(F)(F)F)c1` [aprepitant], the “analgesia, von Frey response (withdrawal force)” value is on record as “little analgesic response”.
